Literature values, collected in patent US12324861B2, “Beaded nonwoven membrane as a drug delivery system” (CEBIOTEX, S.L., priority 2018, dated 2025).

Tests used:
[1] = nude mice
[2] = systemic administration in patients

In the case of CCc1c2c(nc3ccc(OC(=O)N4CCC(N5CCCCC5)CC4)cc13)-c1cc3c(c(=O)n1C2)COC(=O)[C@]3(O)CC [Irinotecan], the “conversion to SN-38” value [1] is listed as over 70% and the “conversion into the active derivative (SN-38)” value [2] is listed as “less than 10%”.
